The term GI50 denotes the concentration giving 50% growth inhibition. The TGI is the concentration giving total growth inhibition.

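1) Cells in 96-well plates. 2) Compound, 48 h, 5 concentrations. 3) Linear interpolation between surrounding doses. 4) Unreached endpoint = highest concentration. GI50 is the concentration that inhibits growth by half. TGI is the concentration that stops growth completely.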 Residues, ends and D or L forms follow the SMILES beside them. *: point of attachment. Cbz = O=C(OCc1ccccc1)* Bounds are passed on as bounds.

Common to all, as to test: DTP human tumour cell line panel, 48 h
The subject of test [1] is UACC-62 melanoma.
The subject of test [2] is OVCAR-8 ovarian.
Test [3] has as its system NCI-H226 lung.
For test [4], the system named is CCRF-CEM leukemia.
The test system of test [5] is K-562 leukemia.
Test [6] relates to TK-10 renal.
Test [7] relates to SNB-19 CNS.
In test [8] the test system is SK-MEL-2 melanoma.
Test [9] concerns OVCAR-4 ovarian.
The test system of test [10] is HCT-15 colon.

For `Cn1cc(C2=C(c3cn(CCCCCO)c4ccccc34)C(=O)NC2=O)c2ccccc21`, the GI50 is 3.99 µM in test [1]; 6.3 µM in [2]; 5.03 µM in test [3]; 3.01 µM in [4]; 2.16 µM in [5]; 6.11 µM in test [6]. Further, the GI50 in test [7] was 8.41 µM; in test [8], 2.83 µM; in test [9], 5.11 µM; in test [10], 2.57 µM. Besides, the TGI in test [1] is 9.17 µM; in [2] it was above 20.2 µM; in test [3] it was 15.8 µM; in [4] it was above 16.6 µM; in test [5] it was above 25 µM; in test [6], 16 µM. The total growth inhibition concentration (TGI) was above 23.2 µM in test [7], 8.15 µM in test [8], 17.5 µM in [9] and above 25 µM in test [10].

In the case of `O=C(O)c1cn(C2CC2)c2cc(N3CCN(Cc4c(O)ccc5ccccc45)CC3)c(F)cc2c1=O`, the GI50 in test [1] is 13.5 µM; in [2], 4.61 µM; in test [3] it was 5.45 µM; in test [4], 20.5 µM; in [5] it was above 100 µM; in test [6], 2.66 µM. Moreover, the GI50 in [7] is 91.5 µM; in [8], 15.1 µM; in test [9] it was 7 µM; in [10], 3.64 µM. Moreover, the TGI in test [1] was above 100 µM; in [2] it was above 100 µM; in test [3], above 100 µM; in test [4], above 100 µM; in test [5], above 100 µM; in [6] it was 8.38 µM. The TGI in test [7], in test [8], in test [9] and in [10] was above 100 µM throughout.

For `CN(C)C=Nc1c(I)cc(I)c(CCC(=O)O)c1I`, the GI50 is above 100 µM in [1]; above 100 µM in test [2]; above 100 µM in test [3]; above 100 µM in [4]; 59.3 µM in test [5]; above 100 µM in test [6]. The GI50 in test [7], in [8], in test [9] and in test [10] was above 100 µM each time. For the same compound, the total growth inhibition concentration (TGI) in test [1], in [2], in [3], in [4], in test [5] and in [6] was above 100 µM each time. Further, the concentration for total growth inhibition (TGI) in test [7], in [8], in test [9] and in test [10] was above 100 µM in each case.

With `CN1C(=O)C2(c3ccccc31)C1CC3C(CO1)C1C2C3(CO)CN1C#N` (stereo not given), the TGI in [1], in test [2], in [3], in test [4], in test [5] and in test [6] was above 100 µM each time. Moreover, the TGI in [7], in [8], in test [9] and in [10] was above 100 µM each time.

For `O=c1cccc2n1CC1CNC[C@H]2C1`, the TGI in test [1], in [2], in [4], in test [5], in [6] and in [7] was above 100 µM each time. In addition, the TGI in [8], in test [9] and in test [10] was above 100 µM in each case.

With `COC(=O)C1[C@H](c2ccc3c(c2)OCO3)OC(=O)[C@]1(C(=O)OC)C(=O)c1ccc(OC)c(OC)c1` (stereo not given in full), the TGI in [1], in test [2], in [3], in test [4], in [5] and in test [6] was above 100 µM throughout. The TGI in test [8] is 79.9 µM; in test [9], above 100 µM; in [10], above 100 µM.

On to `CC(C)C[C@@H](C=O)NC(=O)[C@H](CC(C)C)NC(=O)[C@H](CC(C)C)NC(=O)OCc1ccccc1` (Cbz-Leu-Leu-Leu-aldehyde), for which the GI50 is 0.235 µM in test [1]; 0.523 µM in test [2]; 0.378 µM in test [4]; 0.368 µM in [5]; 0.27 µM in [6]; 0.829 µM in [7]. Besides, the GI50 in [8] was 0.483 µM; in test [10], 0.465 µM. In addition, the TGI is 0.548 µM in test [1]; 4.66 µM in test [2]; 64.2 µM in [4]; above 100 µM in test [5]; 0.893 µM in test [6]; above 100 µM in test [7]. Moreover, the TGI turned out to be 3.28 µM in [8] and 10.2 µM in test [10].

`c1ccc2c(CNCCCCCCCCNCc3cccc4ccccc34)cccc2c1`: the TGI in test [1] turned out to be 3.24 µM; in test [2] it was 3.5 µM; in [3] it was 24.5 µM; in [4] it was 5.21 µM; in test [5], 3.73 µM; in [6] it was 5.53 µM. Further, the TGI in test [8] came out at 3.03 µM; in test [9] it was 5.28 µM; in test [10], 3.38 µM.

Take `NCCSC(c1ccccc1)(c1ccccc1)c1ccccc1`: the GI50 in test [2] is 0.989 µM; in [3] it was 4.79 µM; in [4], 1.85 µM; in test [5], 0.322 µM; in test [7] it was 5.36 µM; in [8], 1.18 µM. Besides, the GI50 was 2.94 µM in [9] and 0.409 µM in test [10]. Moreover, the TGI amounted to 7 µM in test [2]; 22.7 µM in test [3]; 6 µM in test [4]; 1.61 µM in test [5]; 20.1 µM in test [7]; 2.72 µM in test [8]. The TGI in test [9] is 12.9 µM; in test [10], 1.75 µM.

For the compound `NC(N)=N/N=C/c1c(-c2cccnc2)nc2sc(Cl)cn12`, the GI50 was 14.1 µM in [1]; 16.5 µM in test [2]; 13.4 µM in test [3]; 6.66 µM in test [4]; 19.1 µM in test [5]; 15.4 µM in test [6]. For the same compound, the GI50 in [8] is 42.8 µM; in [10], 14.9 µM. The TGI in [1] was 27.1 µM; in [2], 38.7 µM; in [3], 28 µM; in test [4] it was 23.9 µM; in [5], 43.3 µM; in test [6] it was 29.3 µM. The TGI in test [8] was above 100 µM; in [10], 28.1 µM.

`Cc1sc2c(c1C)C(c1ccc(Cl)cc1)=N[C@@H](CC(=O)NCCCN1CCN(C)CC1)c1nnc(C)n1-2`: the GI50 in test [1] is 0.214 µM; in test [2] it was 4.96 µM; in test [4] it was 1.6 µM; in test [5], 0.299 µM; in [7], 0.987 µM; in [8] it was above 44.6 µM. In addition, the GI50 is 0.748 µM in test [9] and 16.8 µM in test [10]. Also, the total growth inhibition concentration (TGI) in test [1], in test [2], in [3], in test [4], in [5] and in [7] was above 100 µM throughout. Moreover, the TGI in test [8], in test [9] and in test [10] was above 100 µM in each case.

Regarding `O=[N+]([O-])C=C1c2ccccc2-c2ccccc21`, the total growth inhibition concentration (TGI) stood at 34.2 µM in test [2]; 80.8 µM in test [4]; 6.34 µM in test [5]; 32.3 µM in [6]; 51.8 µM in test [7]; 39.9 µM in test [8]. Moreover, the TGI in test [9] amounted to 28.2 µM; in test [10] it was 38.7 µM.

For the compound `N#CCc1nnc(N)o1`, the TGI in test [1], in test [3], in [4], in test [5], in [6] and in test [7] was above 100 µM each time. For the same compound, the TGI in [8] and in test [10] was above 100 µM throughout.

With `Cc1ccc(C2=Nc3ccccc3S(=O)C(c3ccc4c(c3)OCO4)C2)cc1` (stereo not given), the concentration for total growth inhibition (TGI) is 51.2 µM in test [1]; 46.9 µM in [2]; above 100 µM in [3]; 83.9 µM in test [4]; 98.8 µM in test [5]; above 100 µM in [6]. Moreover, the concentration for total growth inhibition (TGI) is above 100 µM in [7], 41.6 µM in test [8] and above 100 µM in test [9].

Take `C=CC(=O)Nc1cccc(Oc2nc(Nc3ccc(N4CCN(C)CC4)cc3OC)ncc2Cl)c1`: the GI50 in test [1] was 1.87 µM; in test [2] it was 2.08 µM; in test [3] it was 1.81 µM; in [4] it was 3.17 µM; in test [6], 0.513 µM; in test [7], 3.63 µM. Moreover, the GI50 is 2.19 µM in test [8], 2.36 µM in [9] and 2.59 µM in test [10]. Further, the TGI was 3.58 µM in [1]; 8.45 µM in test [2]; 5.66 µM in test [3]; above 26.3 µM in [4]; 1.86 µM in test [6]; 16.7 µM in [7]. Also, the TGI in test [8] is 4.3 µM; in [9], above 39.4 µM; in [10] it was 10.7 µM.

Take `C=C1CC2(CCS(=O)(=O)c3ccccc32)OC1=O` (stereo not given): the TGI in [1] was found to be 31.6 µM; in test [3], 28.9 µM; in test [4], 11 µM; in [5], 34.4 µM; in test [6] it was 26.7 µM; in test [7], 22.8 µM. Also, the TGI in test [8] was determined as 23.6 µM; in test [9], 26.7 µM; in test [10] it was 27.6 µM.

For the compound `COc1cc(CCC(=O)NC[C@@H](O)c2ccccc2)ccc1O`, the GI50 in test [1] is above 100 µM; in test [2] it was above 100 µM; in [3], above 100 µM; in test [4], above 100 µM; in [5] it was 56.8 µM; in test [6] it was above 100 µM. Further, the GI50 in [8], in test [9] and in test [10] was above 100 µM in each case. In addition, the TGI in [1], in [2], in [3], in test [4], in test [5] and in test [6] was above 100 µM in each case. Also, the TGI in test [8], in [9] and in test [10] was above 100 µM throughout.

As to `CCCCCCCCCCOC(=O)NCCC`, the TGI is above 100 µM in test [1]; above 100 µM in [2]; 48.4 µM in test [4]; above 100 µM in test [5]; above 100 µM in test [6]; above 100 µM in test [7]. Moreover, the TGI in test [8] was 41 µM; in test [9] it was above 100 µM; in test [10] it was 48.4 µM.

Regarding `O=C(O)c1c2c(cc3c(=O)cc(-c4ccccc4)oc13)CCCC2`, the TGI in test [1], in test [2], in [4], in test [5], in [6] and in test [7] was above 100 µM each time. The concentration for total growth inhibition (TGI) in [8], in [9] and in [10] was above 100 µM in each case.

`COc1ccc(-c2[nH]nc(N)c2-c2cc(OC)c(OC)c(OC)c2)cc1`: the GI50 is 0.0672 µM in [1]; 0.0459 µM in test [2]; 0.512 µM in test [3]; 0.0325 µM in test [4]; 0.0315 µM in [5]; 0.519 µM in test [7]. For the same compound, the concentration for 50% growth inhibition (GI50) in test [8] was 0.0379 µM; in test [9], 1.62 µM; in test [10], 0.0345 µM. Further, the TGI in test [1], in test [2], in test [3], in test [5], in test [7] and in [8] was above 100 µM throughout. Also, the concentration for total growth inhibition (TGI) in [9] and in test [10] was above 100 µM in each case.

Take `COc1cc2c(c(OC)c1OC)-c1c(c3ccc([N+](=O)[O-])cc3c(=O)n1CCCN)C2=O`: the GI50 in [1] was 9.12 µM; in [2] it was 1.79 µM; in [3], 9.38 µM; in test [4] it was 0.826 µM; in test [5], 0.478 µM; in [6], 9.89 µM. Also, the figures for the GI50 in [8], in [9] and in test [10] were 1.21 µM, 2.9 µM and 8.16 µM, respectively. Further, the TGI in [1] was determined as 17 µM; in test [2], 6.42 µM; in test [3], 19.4 µM; in [4], 2.12 µM; in [5], 1.33 µM; in test [6], 18.7 µM. Besides, the values for the TGI in [8], in test [9] and in [10] were 2.77 µM, 12.9 µM and 16.8 µM, respectively.
